Experimental data published in US8222244B2, “Staurosporine derivatives as inhibitors of FLT3 receptor tyrosine kinase activity” (Novartis AG, priority 2001, dated 2012).

Target: T1, human Flt-3 (Homo sapiens, UniProt P36888)
T1 construct: expresses the amino acid region amino acids 563-993 of the intra-cytoplasmic kinase domains of human Flt-3; made in house; host or cells: Sf9 insect cells (baculovirus, pFbacG01 donor vector)
T1 sequence (P36888 563-993): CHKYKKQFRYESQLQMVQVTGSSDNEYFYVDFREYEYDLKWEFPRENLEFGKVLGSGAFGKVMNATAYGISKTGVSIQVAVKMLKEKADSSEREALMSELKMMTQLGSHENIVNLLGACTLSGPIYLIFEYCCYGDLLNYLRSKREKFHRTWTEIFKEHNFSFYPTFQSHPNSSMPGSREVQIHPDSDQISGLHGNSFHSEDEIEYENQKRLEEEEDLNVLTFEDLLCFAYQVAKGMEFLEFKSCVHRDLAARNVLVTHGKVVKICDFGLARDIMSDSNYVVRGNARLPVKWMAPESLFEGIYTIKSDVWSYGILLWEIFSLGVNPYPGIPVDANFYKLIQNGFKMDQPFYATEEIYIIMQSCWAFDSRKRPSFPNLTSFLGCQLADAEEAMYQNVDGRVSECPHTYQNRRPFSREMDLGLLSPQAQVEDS
Test: Tyrosine protein kinase assay with purified GST-Flt-3 (33P incorporation)
Assay type: biochemical
Details: at a 1.0 micromolar concentration
Method: ATP into appropriate substrates.
The coding sequences for the cytoplasmic domain of Flt-3 was amplified by PCR from human c-DNA libraries (Clontech). The amplified DNA fragments and the pFbacG01 vector were made compatible for ligation by digestion with BamH1 and Hind III. […] The production of the viruses, the expression of proteins in Sf9 cells and the purification of the GST-fused proteins were performed as following:
(Generation of Bac- to Bac GST-fusion vectors); pFbacG01, pFbacGST2T and pFbacGSTx3 Bac-to-Bac™ donor vectors were generated from pAcG1, pAcG2T and pAcG3X respectively, which facilitate the expression of GST-fusion proteins with the possibility of cleavage with thrombin (pFbacGT2) or factor Xa (pFbacGSTx3) while pFbacG01 expresses no proteolytic cleavage site. These were generated in house by isolation of the DNA fragment containing the gene for GST with the C-terminal protease and restriction sites by restriction enzyme digestion of the relevant PharMingen baculovirus donor vector with EcoRV and EcoRI. This EcoRV/EcoRI fragment was ligated into the pFastBac1 vector which had been restriction digested with BamHI, blunt-ended by Klenow reaction and subsequently digested with EcoRI to generate a blunt-ended/EcoRI vector. (Production of virus); Transfer vectors containing the kinase domains were transfected into the DH10Bac cell line (GIBCO) and plated on selective agar plates. Colonies without insertion of the fusion sequence into the viral genome (carried by the bacteria) are blue. Single white colonies were picked and viral DNA (bacmid) isolated from the bacteria by standard plasmid purification procedures. Sf9 cells or Sf21 cells were then transfected in 25 cm^2 flasks with the viral DNA using Cellfectin reagent. (Determination of small scale protein expression in Sf9 cells); Virus containing media was collected from the transfected cell culture and used for infection to increase its titer. Virus containing media obtained after two rounds of infection was used for large-scale protein expression. For large-scale protein expression 100 cm^2 round tissue culture plates were seeded with 5×10^7 cells/plate and infected with 1 mL of virus-containing media (approx. 5 MOIs). After 3 days the cells were scraped off the plate and centrifuged at 500 rpm for 5 min. Cell pellets from 10-20, 100 cm^2 plates, were resuspended in 50 mL of ice-cold lysis buffer (25 mMTris-HCl, pH7.5, 2 mMEDTA, 1% NP-40, 1 mM DTT, 1 mMP MSF). The cells were stirred on ice for 15 min and then centrifuged at 5000 rpms for 20 min.
ATP 0.1 μCi). […] ATP into appropriate substrates. […] Subsequently, 40 μL of the reaction mixture were transferred onto Immobilon-PVDF membrane (Millipore, Bedford, Mass., USA) previously soaked for 5 min with methanol, rinsed with water, then soaked for 5 min with 0.5% H3PO4 and mounted on vacuum manifold with disconnected vacuum source. After spotting all samples, vacuum was connected and each well rinsed with 200 μL 0.5% H3PO4. Membranes were removed and washed 4× on a shaker with 1.0% H3PO4, once with ethanol. Membranes were counted after drying at ambient temperature, mounting in Packard TopCount 96-well frame, and addition of 10 μL/well of Microscint™ (Packard). […] One unit of protein kinase activity is defined as 1 nmole of ^33P ATP transferred from [γ^33P] ATP to the substrate protein per minute per mg of protein at 37° C.

Flt3 Inhibition (percent inhibition of Flt3 kinase activity) | Structure (SMILES)
65% | CO[C@@H]1[C@H](N(C)C(=O)CNC(=O)OC(C)(C)C)C[C@H]2O[C@]1(C)n1c3ccccc3c3c4c(c5c6ccccc6n2c5c31)C(=O)NC4 [124078-43-9, [9S-(9a,10b,11b,13a)]-[2-[(2,3,10,11,12,13-Hexahydro-10-methoxy-9-methyl-1-oxo-9,13-epoxy-1H,9H-diindolo[1,2,3-gh:3′,2′,1′-lm]pyrrolo[3,4-j][1,7]benzodiazonin-11-yl)methylamino]-2-oxoethyl]-carbamic acid, 1,1-dimethylethyl ester]
97% | COC1C(N(C)C(=O)CN)CC2OC1(C)n1c3ccccc3c3c4c(c5c6ccccc6n2c5c31)C(=O)NC4.Cl (stereo not drawn) [124151-42-4, [9S-(9a,10b,11b,13a)]-2-Amino-N-(2,3,10,11,12,13-hexahydro-10-methoxy-9-methyl-1-oxo-9,13-epoxy-1H,9H-diindolo[1,2,3-gh:3′,2′,1′-lm]pyrrolo[3,4-j][1,7]benzodiazonin-11-yl)-N-methyl-acetamide, monohydrochloride]
52% | COC1C(N(C)C(=O)CNC(=O)OCc2ccccc2)CC2OC1(C)n1c3ccccc3c3c4c(c5c6ccccc6n2c5c31)C(=O)NC4 (centres unmarked) [125035-78-1, (9a,10b,11b,13a)-[2-[(2,3,10,11,12,13-Hexahydro-10-methoxy-9-methyl-1-oxo-9,13-epoxy-1H,9H-diindolo[1,2,3-gh:3′,2′,1′-lm]pyrrolo[3,4-j][1,7]benzodiazonin-11-yl)methylamino]-2-oxoethyl]-carbamic acid, phenylmethyl ester]
83% | CO[C@@H]1/C(=N/O)C[C@H]2O[C@]1(C)n1c3ccccc3c3c4c(c5c6ccccc6n2c5c31)C(=O)NC4 [126221-76-9, (9S,10R,11Z,13R)-2,3,9,10,12,13-Hexahydro-10-methoxy-9-methyl-9,13-epoxy-1H,11H-diindolo[1,2,3-gh:3′,2′,1′-lm]pyrrolo[3,4-j][1,7]benzodiazonine-1,11-dione, 11-oxime]
96% | CO[C@@H]1[C@H](N)C[C@H]2O[C@]1(C)n1c3ccccc3c3c4c(c5c6ccccc6n2c5c31)C(=O)NC4 [126221-77-0, (9S,10R,11R,13R)-11-Amino-2,3,10,11,12,13-hexahydro-10-methoxy-9-methyl-9,13-epoxy-1H,9H-diindolo[1,2,3-gh:3′,2′,1′-lm]pyrrolo[3,4-j][1,7]benzodiazonin-1-one]
63% | CO[C@@H]1[C@H](N(C)C(=O)c2ccccc2)C[C@H]2O[C@]1(C)n1c3ccccc3c3c4c(c5c6ccccc6n2c5c31)C(=O)NC4=O [154589-96-5, [9S-(9a,10b,11b,13a)]-N-(2,3,10,11,12,13-Hexahydro-10-methoxy-9-methyl-1,3-dioxo-9,13-epoxy-1H,9H-diindolo[1,2,3-gh:3′,2′,1′-lm]pyrrolo[3,4-j][1,7]benzodiazonin-11-yl)-N-methyl-benzamide]

Structure (SMILES) | Flt3 Inhibition (percent inhibition of Flt3 kinase activity)
COC1C(N(C)C(=O)c2ccc(C(=O)[O-])cc2)CC2OC1(C)n1c3ccccc3c3c4c(c5c6ccccc6n2c5c31)C(=O)NC4.[Na+] (stereo not drawn) [120751-44-2, [9S-(9a,10b,11b,13a)]-4-[[(2,3,10,11,12,13-Hexahydro-10-methoxy-9-methyl-1-oxo-9,13-epoxy-1H,9H-diindolo[1,2,3-gh:3′,2′,1′-lm]pyrrolo[3,4-j][1,7]benzodiazonin-11-yl)methylamino]carbonyl]-benzoic acid, monosodium salt] | 90%
COC1C(N(C)C(=O)CCN)CC2OC1(C)n1c3ccccc3c3c4c(c5c6ccccc6n2c5c31)C(=O)NC4.Cl (stereo not drawn) [124078-41-7, [9S-(9a,10b,11b,13a)]-3-Amino-N-(2,3,10,11,12,13-hexahydro-10-methoxy-9-methyl-1-oxo-9,13-epoxy-1H,9H-diindolo[1,2,3-gh:3′,2′,1′-lm]pyrrolo[3,4-j][1,7]benzodiazonin-11-yl)-N-methyl-propanamide, monohydrochloride] | 99%
